Laboratory results reported in patent publication US9579378B2, “Combinations and uses thereof” (MORPHOSYS AG, priority 2012, dated 2017).

How the values were obtained:
[1] = system: Human Multiple Myeloma NCI-H929 cells; assay: M-Protein concentration in sera (ELISA) on day 42 of the orthotopic osteolysis model; format: in vivo, SCID mice; settings: sera at termination (day 42), versus mice that received solvent diluent only, FIG. 3
[2] = system: Human Multiple Myeloma NCI-H929 cells; assay: Orthotopic osteolysis model, microCT analysis of tibia (bone lysis); format: in vivo, SCID mice; settings: for Total Bone Lysis: microCT, day 42, vehicle control = 100.0, Melphalan 4 mg/kg i.v., MOR03087 3 mg/kg i.p., 3x weekly for 6 weeks, data of FIG. 1

| Molecule | Protein M concentration in sera [1] | Bone lysis (microCT, FIG. 2) ([2]; Melphalan 8 mg/kg alone, i.v. 3x weekly for 6 weeks, day 42) | Total Bone Lysis [2] [%] |
| --- | --- | --- | --- |
| N[C@@H](Cc1ccc(N(CCCl)CCCl)cc1)C(=O)O [Melphalan] | significantly reduced | reduced bone lysis completely | 61.3 |
| MOR03087: anti-CD38 antibody whose amino acid sequence and DNA sequence is provided in FIG. 4; disclosed in U.S. Pat. No. 8,088,896 (antibody, listed as Homo sapiens, V domains shown, MOR202 Variable Heavy Domain; MOR202 Variable Light Domain) VH: QVQLVESGGGLVQPGGSLRLSCAASGFTFSSYYMNWVRQAPGKGLEWVSGISGDPSNTYYADSVKGRFTISRDNSKNTLYLQMNSLRAEDTAVYYCARDLPLVYTGFAYWGQGTLVTVSS VL: DIELTQPPSVSVAPGQTARISCSGDNLRHYYVYWYQQKPGQAPVLVIYGDSKRPSGIPERFSGSNSGNTATLTISGTQAEDEADYYCQTYTGGASLVFGGGTKLTVLGQ | significantly reduced |  | 27.6 |
